Measurements as given in ChEMBL document CHEMBL3397020, “Synthesis of benzopentathiepin analogs and their evaluation as inhibitors of the phosphatase STEP” (Bioorg Med Chem Lett, 2015).
pIC50, pKi: −log10 of the molar value.

How the values were obtained:
[1] = target: T1, Tyrosine-protein phosphatase non-receptor type 5 (Homo sapiens, UniProt P54829); assay: Inhibition of STEP (unknown origin) pre-incubated for 10 mins before addition of p-nitrophenyl phosphate substrate in presence of 1 mM GSH
T1 sequence (P54829 whole entry): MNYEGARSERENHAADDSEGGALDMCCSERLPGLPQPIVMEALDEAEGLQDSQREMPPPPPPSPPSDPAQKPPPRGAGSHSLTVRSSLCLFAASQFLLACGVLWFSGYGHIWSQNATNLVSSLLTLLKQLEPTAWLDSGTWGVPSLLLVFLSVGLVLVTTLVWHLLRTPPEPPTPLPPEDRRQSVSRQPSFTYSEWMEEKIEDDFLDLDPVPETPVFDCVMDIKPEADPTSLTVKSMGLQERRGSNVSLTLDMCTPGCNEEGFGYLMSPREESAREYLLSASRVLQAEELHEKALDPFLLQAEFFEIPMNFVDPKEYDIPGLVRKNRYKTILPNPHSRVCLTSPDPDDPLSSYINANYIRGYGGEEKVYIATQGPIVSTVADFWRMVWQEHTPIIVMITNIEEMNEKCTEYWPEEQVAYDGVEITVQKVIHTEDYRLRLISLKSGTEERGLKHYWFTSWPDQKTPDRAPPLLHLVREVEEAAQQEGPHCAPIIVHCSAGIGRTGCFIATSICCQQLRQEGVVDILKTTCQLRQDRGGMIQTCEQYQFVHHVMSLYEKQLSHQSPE

[2] = target: T1, Tyrosine-protein phosphatase non-receptor type 5; assay: Inhibition of STEP (unknown origin) in absence of GSH by p-nitrophenyl phosphate hydrolysis assay
[3] = target: T2, Tyrosine-protein phosphatase non-receptor type 5 (Homo sapiens) (UniProt P54829)
T2 sequence (whole entry): T1 sequence (P54829 whole entry)
Description: Inhibition of STEP (unknown origin) assessed as second-order rate constant for enzyme inactivation in absence of GSH by p-nitrophenyl phosphate hydrolysis assay

[4] = target: T1, Tyrosine-protein phosphatase non-receptor type 5; assay: Inhibition of STEP (unknown origin) pre-incubated for 10 mins before addition of p-nitrophenyl phosphate substrate in absence of GSH

pIC50 [1]: 4.82
pKi [2]: 6.63
Kinact [3]: 0.0378 s⁻¹
pIC50 [4]: 7.62
SMILES: O=C(Nc1cc(C(F)(F)F)cc2c1SSSSS2)C(F)(F)F
